{
  "source": "patent US20070203079A1",
  "about": "“Methods of using small molecule compounds for neuroprotection” (priority 2005, published 2007)",
  "assay_type_in_all_cases": "in vivo, C. elegans",
  "key": {"[1]": {"test_system": "worms expressing Punc-54::Q82::GFP+Punc-54::torsinA with wt torsinA only", "experiment": "Protein aggregate assay in worms with wt torsinA only", "protocol": "C elegans nematodes were grown at 20° C. on NGM plates as described by Brenner (Brenner, Genetics, 1974, 77: 71-94). Several transgenic C. elegans lines were used for primary screens of the Prestwick small molecule library. A transgenic worm line expressing Punc-54::Q82-GFP; with both wild type (“wt”) (Punc=54: :torsinA) or mutant (Punc-54::torsinA(ΔE)). Torsin-A expresses a phenotype that results in visible protein aggregation under fluorescent microscope. Transgenic worms were plated on drug plates and progeny were studied for a return to soluble protein.\nDrugs were administered to C. elegans according to a standard procedure (Rand and Johnson, Methods Cell Biol, 1995, 48: 187-204), by mixing the solubilized drug with the agar medium on which the worms are grown. This mode of administration allows the continuous exposure of worms to the drug.\nEach drug was first dissolved in an appropriate solvent, followed by adding the drug solution into pre-autoclaved media, with the volume of drug solution already taken into account. […]\nThe screening assays used to identify the compounds use protein aggregation readouts to determine the specificities of molecular action. […]\nThe methods for the aggregate analysis assay are described in Caldwell et al. (Hum Mol Genetics, 2003, 12(3): 307-319). […] MetaMorph Software (Universal Imaging Inc.) was used for pseudocoloration of images, image overlay, and aggregate size quantitation. For each worm line analyzed, average aggregate size was determined by capturing images of all aggregates in the posterior region of 30 L3-staged animals (for Q82::GFP aggregates) or all aggregates in 30 adult animals/day (for Q19::GFP analyses) at 1000× magnification. […]\nTo see the effect of the candidate compounds on suppressing protein misfolding and aggregation, five gravid adult worms were placed onto each drug plate and grown at 20° C. for approximately 3 days. Thirty Fl worms at L3 stage and young adult stage were counted for aggregate number."}, "[2]": {"test_system": "protein misfolding and aggregation in transgenic worms", "experiment": "Preventative assay of protein aggregation (drug from hatching to L2 stage)", "details": "exposure from hatching to L2 stage; scored at L3 and young adult", "outline": "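Transgenic worms were raised on drug plates at 20° C from hatching to L2 (about 3 days), then moved to solvent control plates. Aggregates were counted in L3 worms 8 hours later and in young adults 32 hours later. Scaled effectiveness = […], with A as solvent-only worms, B as lifelong-drug worms and C as pre-L2-exposed worms.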"}, "[3]": {"test_system": "protein misfolding and aggregation in transgenic worms", "experiment": "Corrective assay of protein aggregation (drug from L2 stage onward)", "details": "drug exposure from L2 stage onward; scored at L3 and young adult", "protocol": "To see the corrective effect of the candidate drug compounds on protein misfolding and aggregation, five gravid adult worms were placed onto a solvent control plate and grown at 20° C. for approximately 3 days. 35-40 Fl worms at L2 stage were picked and transferred to a drug plate. Thirty worms at L3 stage were counted for aggregate number 8 hours later. Thirty young adults were analyzed 32 hours later.\nTo calculate the scaled effectiveness of special regimen of drugs on worms based on standardized decrease in protein aggregates. The following formula was used: (A−B)/(A−C)×100%, where\nA=number of aggregates for worms growing on solvent control plates\nB=number of aggregates for worms grown on the specific drug plate for the entire life of the worms\nC=number of aggregates for worms that received exposure from L2 stage (until adulthood)\nIf the regimen has no effect, the value would equal 0%. Conversely, if the regimen was as effective as raising the worms on the drug for their entire life, the value would equal 100%."}, "[4]": {"test_system": "Pdat-1::GFP+Pdat-1::torsinA worms (wt torsinA)", "experiment": "6-OHDA dopaminergic neurodegeneration in worms with wt torsinA", "protocol": "C. elegans nematodes were grown at 25° C. on NGM plates as described by Brenner (Brenner, Genetics, 1974, 77: 71-94). Two transgenic C. elegans lines were used for primary screens of the Prestwick small molecule library. A transgenic worm line expressing Pdat-1::GFP; with both wild type (Pdat-1::torsinA) or mutant (Pdat-1:::torsinA(ΔE)). Torsin-A expresses a phenotype that results in visible neurodegeneration after treatment with 6-OHDA. Transgenic worms were plated on drug plates and progeny were studied for morphological changes in the 8 dopaminergic neurons present in C. elegans.\nDrugs were administered to C. elegans according to a standard procedure (Rand and Johnson, Methods Cell Biol, 1995, 48: 187-204) by mixing the solubilized drug with the agar medium on which the worms are grown. […]\nAge-synchronized worms were obtained by treating gravid adults with 2% sodium hypochlorite and 0.5M NaOH to isolate embryos (Lewis Fleming, 1995). […] The worms were then washed and spread onto NGM plates seeded with bacteria (OP50) and scored at time points ranging from 2 to 72 h after 6-OHDA exposure.\nImmediately after 6-OHDA treatment, worms containing the transgenes were selected under a fluorescence dissecting microscope, based on the presence of GFP, and transferred to a fresh NGM plate seeded with OP50. […] For ease of analysis, only the four CEP DA neurons in the head of the worm were scored. […]"}},
  "note": "Where a name gives a salt, the structure may show the parent alone.",
  "data": [
    {"smiles": "C=N[C@@H](C(=O)N[C@@H]1C(=O)N2[C@@H]1SC(C)(C)[C@@H]2C(=O)O)c1ccccc1", "note": "[Compound 235, Metampicillin sodium salt]", "values": [
      {"measurement": "reduction of protein aggregation", "setting": "[1]", "result": "reduced protein aggregation"},
      {"measurement": "preventative effect on protein aggregation", "setting": "[2]", "result": "seem to be beneficial"},
      {"measurement": "corrective effect on protein aggregation", "setting": "[3]", "result": "seem to be beneficial"},
      {"measurement": "neuroprotection against 6-OHDA insult", "setting": "[4]; listed as Metampicillin, sodium salt", "result": "provides neuroprotection"},
      {"measurement": "neuroprotection against 6-OHDA insult", "setting": "[4]; listed as metampicillin sodium salt", "result": "only afforded in Pdat-1::GFP+Pdat-1::torsinA worms expressing wt torsinA"}
    ]}
  ]
}
